In experiment [1] the test system is Candida albicans and Aspergillus niger. Briefly: Mixed fungal challenge of preserved anionic protein shampoo (Example 5). It counts as cell-based. The protocol: Each anionic shampoo sample in Table 4 below was tested as follows. A standard mixed […] solution was prepared according to the following procedure. 2 agar […] of Candida albicans and 4 agar […] of Aspergillus niger were separately incubated at about 25 EC for about 48 hours and 7 days, respectively. Each slant was washed with 3 mL of sterile 0.85% saline solution, collected and macerated in a tissue grinder. Sufficient amounts of 0.85% saline solution were added to each slant to obtain a visual count under a microscope with a Neubauer Hemocytometer of each innoculum of C. albicans and A. niger. Equal volumes of each standardized innoculum of C. albicans and A. niger were mixed together to form the standardized mixed fungal solution. 40 g of each shampoo sample was inoculated with 0.4 mL of the standardized mixed fungal solution and mixed. 1 g of the mixture was added to a sterile 20×150 mm screw cap test tube. 9 mL of sterile D/E neutralizer broth was added to the test tube and mixed to form a 10^-1 dilution. Serial dilutions were prepared through to a 10^-6 dilution with phosphate buffered water. The serial dilutions were plated onto Sabourand dextrose agar and incubated 5 days at about 25 EC. […] The anionic protein shampoo composition is described in Example 4. The shampoo samples were prepared by mixing the appropriate amounts of the preservatives and the anionic protein shampoo composition and heating the mixture to about 50 EC for about 15 minutes.

Another experiment has as its system fungi. The experiment can be described thus: Fungal plate count of preserved GMS cream (Example 6). Format: cell-based. As to the method: Each cream sample in Table 5 below was tested by the procedure described in Example 1. A glyceryl monostearate (GMS) cream as described in Table 3 below was prepared as follows. The polyoxyethylene glyceryl monostearate, glyceryl monostearate, cetearyl alcohol, and myristyl propionate were mixed and heated to 60 EC in a first container. The glycerin and sterile deionized water were mixed and heated to 60 EC in a second container. The solution in the first container was poured into the second container. The second container was maintained at 60 EC for 10 minutes. The solution in the second container was allowed to cool. The pH of the solution was adjusted to pH 7 with sodium hydroxide to yield the GMS cream. The cream samples shown in Table 7 below were prepared by mixing the appropriate amounts of the preservatives and the GMS cream and heating the mixture to 50 EC for 10-15 minutes.

Some results are limits rather than exact numbers.

The source of these data is US8784910B2, “Antimicrobial compositions” (Lonza Inc., priority 2002, dated 2014).

For the molecule `O=CC=Cc1ccccc1` [Cinnamaldehyde, cinnamaldehyde], the “Fungal Plate Count Day 0” value (in experiment [1] (0.05% in shampoo); in experiment [1] (0.10% in shampoo); in experiment [1] (0.20 in shampoo); in the experiment on fungi (0.10% in GMS cream); in the experiment on fungi (0.25% in GMS cream)) was 1.0 × 10^5 cfu/g throughout. The “Fungal Plate Count Day 7” value in experiment [1] (0.05% in shampoo) was 8.0 × 10^3 cfu/g; in experiment [1] (0.10% in shampoo), 3.0 × 10^1 cfu/g; in experiment [1] (0.20 in shampoo), <10 cfu/g; with fungi (0.10% in GMS cream) it was <10 cfu/g; in the experiment with fungi (0.25% in GMS cream), <10 cfu/g. The “Fungal Plate Count Day 14” value (in experiment [1] (0.05% in shampoo); in experiment [1] (0.10% in shampoo); in experiment [1] (0.20 in shampoo); in the experiment with fungi (0.10% in GMS cream); in the experiment on fungi (0.25% in GMS cream)) was <10 cfu/g throughout.
